# Data as given in patent US11634381B2, “RUNX2 transcription factor inhibitors and uses thereof” (University of Maryland, Baltimore, priority 2015, dated 2023).
# Key:
# breast cancer cells = test: Cell growth assay (crystal violet); format: cell-based, human; settings: for inhibition at 50 µM: Homo sapiens, 72 hrs
# Text: Cells wereplated on 96-well (30,000 cells/well) or 24-well plates (50,000 cells/well). […] Cells were stained with crystal violet (0.5% in Methanol:Acetic Acid=3:1) and washed with PBS. Crystal violet was solubilized in DMSO and measured in a microplate reader at 592 nm.
# [1] = system: non-malignant cells (MCF10A, IEC-6, GES-1, C2C12); test: Cell growth assay in non-malignant cells; format: cell-based, human, rat, murine; settings: 0˜100 μM, 24˜72 hrs
# Method: Cells wereplated on 96-well (30,000 cells/well) or 24-well plates (50,000 cells/well). After CADD522 (0˜100 μM) addition, cells were incubated for 24˜72 hrs. Cells were stained with crystal violet (0.5% in Methanol:Acetic Acid=3:1) and washed with PBS. Crystal violet was solubilized in DMSO and measured in a microplate reader at 592 nm.
# BC cell lines = test: Clonogenic survival assay; format: cell-based, human; settings: 50 μM
# Method: Cells were plated on 6-well plates (200˜500 cells/well). After compound 1 (50 μM) treatment, cells were incubated for 2-3 weeks without changing media. Colonies were fixed in Methanol-Acetic Acid solution (3:1) and stained with crystal violet (0.5%). After washing, colonies were photographed and counted.
# BC cells [2] = test: Anchorage-independent cell growth assay (soft agar); format: cell-based, human; settings: 50 μM
# Method: Cells (10,000) were mixed in 1 ml of 0.3% low-melting agarose over a 0.6% agar bottom layer in normal growth media. The medium (600 μl) with or without compound 1 (50 μM) on soft agar was changed three times a week for 2-3 weeks. Images of MDA-231 and MCF7 were taken using Nikon Eclipse TE-2000S microscope with Zen Pro image software, and of MDA-468 using Olympus CKX41 microscope with Q-Capture Pro 7 image software at indicated magnifications under the same exposure settings for corresponding vehicle and drug treatments.
# [3] = system: MCF7-tet-off (-Doxy), MDA-231, MDA-468 and MCF7 cells; test: Tumorsphere assay; format: cell-based, human; settings: 50 μM
# Method: Single cell suspensions (100,000 cells/well) wereplatedin 6-well ultra-low attachment plates (Corning) with 5 ml of EGM-2 supplemented with bullet kit (Lonza) and 2% FBS. compound 1 (50 μM) was added at the day of the plating or 4 days after plating. Tumorspheres were continuously photographed for 18 days and counted at the final day. Spheres were counted at 9 fields per well and averaged from triplicate.
# RUNX2 responsive genes = test: Q-RT-PCR of RUNX2 responsive genes; format: cell-based, human; settings: 50 μM
# Method: Total RNA was extracted using TRIzol (Life Technologies). One […] of total RNA was reverse transcribed with oligo-(dT) primer using the SuperScript first-strand synthesis system (Invitrogen) to synthesize cDNA. One μl of each cDNA was used for real-time RT-PCR using QuantiFast SYBR Green PCR Kit […]. mRNA expression of gene of interest relative to β-actin was calculated based on the threshold cycle (Ct) as 2^−D(DCt) method.
# BC cells [4] = test: Glucose consumption and lactate production; format: cell-based, human
# Method: For measurement of glucose level, cells (100,000/well) were plated in 24-well plates and incubated overnight. Cells were treated with compound 1 (50 μM) in phenol red-free growth medium and further incubated for 6 hrs or 24 hrs. The culture medium was collected and filtered through a 0.22 μm pore membrane. Glucose level in the medium was measured using Amplex Red Glucose/Glucose Oxidase Assay Kit (Invitrogen) as per manufacturer's instructions. For lactate level, cells were treated with compound 1 for 24 hrs, and the medium was washed and replaced with HEPES-buffered Krebs-Ringer solution (Boston BioProducts) supplemented with 10 mM Glucose. Cells were incubated for 30 min, and the medium was collected and filtered through a 0.22 μm pore membrane. Lactate level in the medium was measured using Lactate Assay Kit (Sigma-Aldrich) as per manufacturer's instructions. Cell growth assays using crystal violet staining were performed to verify equal number of cells and no significant difference was found in 24 hrs of compound 1 treatment (data not shown).
# [5] = system: MDA-231, MCF7, MDA-468, BT474 cells; test: Combination of compound 1 and CDK inhibitors, cell proliferation and colony assays; format: cell-based, human
structure (smiles),measurement,setting,value
"O=C(O)C1C2C=CC(C2)C1C(=O)Nc1ccc(Cl)c(Cl)c1 (stereo not shown) [compound 1, 3-(N-(3,4-dichlorophenyl)carbamoyl)-5-norbornene-2-carboxylic acid]",inhibition in cell viability,"breast cancer cells; 0˜100 μM, over 24 hrs",no significant inhibition
same,cell growth inhibition,"breast cancer cells; 0˜100 μM, over 72 hrs",dose- and time-dependent cell growth inhibition
same,inhibition at 50 µM,breast cancer cells; MDA-MB-468 cells,> 50%
same,inhibition at 50 µM,breast cancer cells; majority of TNBC and luminal type BC cells,< 50%
same,cell proliferation relative to vehicle controls,"breast cancer cells; ectopic RUNX2-expressing MCF7 and T47D cells, 7 days",dramatic decrease
same,sensitivity of non-malignant cells versus BC cell lines,[1],much lower
same,clonogenic survival,"BC cell lines; 2˜3 weeks, 11 out of 13 BC cells",less than 50%
same,clonogenic cell survival,"BC cell lines; 2˜3 weeks, BT549, HCC70, MDA-468, MCF7, HCC361, BT474",less than 10%
same,clonogenic survival,"BC cell lines; 2˜3 weeks, MDA-231 and Hs578t",> 50%
same,clonogenic survival,"BC cell lines; 2˜3 weeks, MDA-468 and BT474",did not survive
same,clonogenicity,"BC cell lines; T47D-Empty and T47D-RUNX2 cells, 14 days",dramatically diminished
same,anchorage-independent cell growth,BC cells [2]; 2-3 weeks,strongly inhibited
same,colony size relative to control,"BC cells [2]; MDA-231, MCF7, MDA-468",< 1/10
same,size and number of tumorspheres,[3],dramatically decreased
same,level of Sirt6 mRNA,"RUNX2 responsive genes; MDA-231 cells, 6 hrs",increased
same,transcriptional levels of Glut-1 and LDHA,"RUNX2 responsive genes; MDA-231 cells, 6 hrs",reduced
same,"mRNA expression levels of MMP13, VEGF, and MMP9","RUNX2 responsive genes; ectopic RUNX2-expressing MCF7 and T47D cells, 72 hrs",repressed
same,RUNX2-increased mRNA level of Glut-1 and LDHA,"RUNX2 responsive genes; ectopic RUNX2-expressing T47D and MCF7 cells, 72 hrs",significantly inhibited
same,lactate concentration,BC cells [4]; 50 μM,significantly reduced
same,glucose consumption,BC cells [4]; MDA-231 cells,Slight but insignificant inhibition
same,glucose level in the medium,"BC cells [4]; RUNX2-expressing MCF7 and T47D, MCF7 and MDA-468 cells, 6 hrs and 24 hrs",increased
same,growth inhibition of BT474 cells,[5],sensitive
